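Briefly, cells in 96-well plates were exposed to five compound concentrations for 48 h, and endpoints were estimated by linear interpolation. GI50 is the concentration that inhibits growth by half.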 Activity calls are given as the source filed them. Rule as the data show it: active = GI50 up to about 1.1 µM and inactive = higher.
Experiments:
Test in all cases: NCI-60 cell line screen, 48 h
HCT-15 = tested on: HCT-15
MDA-MB-435 = tested on: MDA-MB-435
RXF 393 = tested on: RXF 393
SK-MEL-5 = tested on: SK-MEL-5
RPMI-8226 = tested on: RPMI-8226
NCI-H23 = tested on: NCI-H23
IGROV-1 = tested on: IGROV-1
OVCAR-8 = tested on: OVCAR-8
UACC-257 = tested on: UACC-257
HCT-116 = tested on: HCT-116
K562 = tested on: K562
NCI-H226 = tested on: NCI-H226
SN12C = tested on: SN12C
HCC 2998 = tested on: HCC 2998
NCI-H460 = tested on: NCI-H460
SNB-75 = tested on: SNB-75
NCI-H522 = tested on: NCI-H522
Hs-578T = tested on: Hs-578T
T47D = tested on: T47D

SMILES	GI50 (HCT-15) [µM]	GI50 (MDA-MB-435)	GI50 (RXF 393)	GI50 (SK-MEL-5)	GI50 (RPMI-8226)	GI50 (NCI-H23)	GI50 (IGROV-1)	GI50 (OVCAR-8)	GI50 (UACC-257)	GI50 (HCT-116)	GI50 (K562)	GI50 (NCI-H226)	GI50 (SN12C)	GI50 (HCC 2998)	GI50 (NCI-H460)	GI50 (SNB-75)	GI50 (NCI-H522)	GI50 (Hs-578T)	GI50 (T47D)
CCOC(=O)CCCc1cc(O)c2c(C)c3[nH]c4ccc(Cl)cc4c3c(C)c2n1	31.5	18.5 µM (inactive)	12.7 µM (inactive)	19.8 µM (inactive)	32.6 µM (inactive)	50.2 µM (inactive)	30.2 µM (inactive)	24.9 µM (inactive)	43.2 µM (inactive)	34.8 µM (inactive)	26.1 µM (inactive)	19.1 µM (inactive)	27.3 µM (inactive)	44.4 µM (inactive)	16.5 µM (inactive)	25.9 µM (inactive)			
CCOC(=O)c1ccc(N2C(=S)N(C(=O)c3ccccc3)C(=N/c3ccccc3)/C2=N\c2ccccc2)cc1	> 100	51.5 µM (inactive)	> 10 µM (inactive)	50 µM (inactive)	> 100 µM (inactive)	56.1 µM (inactive)	49.5 µM (inactive)	24.7 µM (inactive)	> 100 µM (inactive)		> 100 µM (inactive)	22.9 µM (inactive)	> 100 µM (inactive)	> 100 µM (inactive)	> 100 µM (inactive)	22.7 µM (inactive)	51.2 µM (inactive)	58.3 µM (inactive)	
CC(C)(C)OC(=O)N/N=C(/N)c1ccccc1	> 100	> 100 µM (inactive)	> 100 µM (inactive)	> 100 µM (inactive)	> 100 µM (inactive)	> 100 µM (inactive)	> 100 µM (inactive)	> 100 µM (inactive)	> 100 µM (inactive)	> 100 µM (inactive)	> 100 µM (inactive)	> 100 µM (inactive)	> 100 µM (inactive)	> 100 µM (inactive)	> 100 µM (inactive)	> 100 µM (inactive)	> 100 µM (inactive)		> 100 µM (inactive)
O=C(O)C(=Cc1ccnc2ccccc12)C(=O)O	> 100		> 100 µM (inactive)	> 100 µM (inactive)	> 100 µM (inactive)	> 100 µM (inactive)	> 100 µM (inactive)	> 100 µM (inactive)	> 100 µM (inactive)	> 100 µM (inactive)	> 100 µM (inactive)	> 100 µM (inactive)	> 100 µM (inactive)		> 100 µM (inactive)	> 100 µM (inactive)	> 100 µM (inactive)	> 100 µM (inactive)	> 100 µM (inactive)
CC(=O)O/C=C1/C[C@H]2[C@@H]3CCC4CC(C(C)=O)CC[C@]4(C)[C@H]3CC[C@]2(C)C1=O (some centres not stated)	14.8	> 100 µM (inactive)	> 100 µM (inactive)	47.2 µM (inactive)		81.7 µM (inactive)	88.9 µM (inactive)		> 100 µM (inactive)	29.6 µM (inactive)	36.4 µM (inactive)	> 100 µM (inactive)	> 100 µM (inactive)	> 100 µM (inactive)	> 100 µM (inactive)		> 100 µM (inactive)		
COc1ccc2c(O)c(Oc3ccc(Cl)cc3)c(=O)oc2c1	41.4		35.3 µM (inactive)	> 100 µM (inactive)	> 100 µM (inactive)	> 100 µM (inactive)	60 µM (inactive)	> 100 µM (inactive)	> 100 µM (inactive)	> 100 µM (inactive)	> 100 µM (inactive)	> 100 µM (inactive)	> 100 µM (inactive)	75.7 µM (inactive)	> 100 µM (inactive)	99.5 µM (inactive)	> 100 µM (inactive)	> 100 µM (inactive)	55.6 µM (inactive)
COc1ccc(O[C@H](COCc2ccccc2)C[C@@H]2COC(C)(C)O2)cc1	> 100	> 100 µM (inactive)	> 100 µM (inactive)	> 100 µM (inactive)	> 100 µM (inactive)	> 100 µM (inactive)	> 100 µM (inactive)	> 100 µM (inactive)	> 100 µM (inactive)	> 100 µM (inactive)	> 100 µM (inactive)	> 100 µM (inactive)	> 100 µM (inactive)	> 100 µM (inactive)	> 100 µM (inactive)	> 100 µM (inactive)	> 100 µM (inactive)		
CC[C@@]1(C[C@H]2C[C@@]3(C(=O)OC)c4[nH]c5ccccc5c4CCN3C2=O)COC2(CCCCC2)O1	33.3		19.5 µM (inactive)	13.5 µM (inactive)		24.2 µM (inactive)	43.9 µM (inactive)	43.3 µM (inactive)	20 µM (inactive)	30 µM (inactive)	23.6 µM (inactive)		45.7 µM (inactive)	21.2 µM (inactive)	24.3 µM (inactive)	46.8 µM (inactive)	37.1 µM (inactive)	18.9 µM (inactive)	29.3 µM (inactive)
CC(O)C1OC(O)C2OC(C)(C)OC12 (configuration not stated)	> 100	> 100 µM (inactive)		> 100 µM (inactive)	> 100 µM (inactive)	> 100 µM (inactive)	> 100 µM (inactive)	> 100 µM (inactive)	> 100 µM (inactive)	> 100 µM (inactive)	> 100 µM (inactive)	> 100 µM (inactive)	> 100 µM (inactive)		> 100 µM (inactive)	> 100 µM (inactive)	> 100 µM (inactive)	> 100 µM (inactive)	> 100 µM (inactive)
O=c1c2cc(S(=O)(=O)Nc3c(Cl)cccc3Cl)ccc2ncn1NS(=O)(=O)c1ccc2ccccc2c1	39.6	> 62.5 µM (inactive)			28.8 µM (inactive)	> 62.5 µM (inactive)	8.67 µM (inactive)	> 62.5 µM (inactive)	> 62.5 µM (inactive)	61.8 µM (inactive)	16.6 µM (inactive)	8.87 µM (inactive)	> 62.5 µM (inactive)	24.4 µM (inactive)	42.2 µM (inactive)	50.1 µM (inactive)	45.4 µM (inactive)	15.8 µM (inactive)	
COc1cc(C2SCC(=O)N2c2ccc(Cl)cc2)cc(OC)c1OC (configuration not stated)	13.9	0.635 µM (active)	19.1 µM (inactive)	1.26 µM (inactive)	8.93 µM (inactive)	26.2 µM (inactive)	20.7 µM (inactive)	> 45.4 µM (inactive)	22.6 µM (inactive)	8.11 µM (inactive)	0.11 µM (active)	> 49.1 µM (inactive)	> 39.5 µM (inactive)	> 30.2 µM (inactive)	3.7 µM (inactive)	> 100 µM (inactive)	31.8 µM (inactive)	> 100 µM (inactive)	
Cc1ccc(N(C)S(=O)(=O)c2ccccc2[N+](=O)[O-])cc1	46.7	29.2 µM (inactive)	34.9 µM (inactive)		33.9 µM (inactive)	40.4 µM (inactive)		48.6 µM (inactive)	41.7 µM (inactive)	39.1 µM (inactive)		27.3 µM (inactive)	83 µM (inactive)		32.5 µM (inactive)		24.6 µM (inactive)		77.4 µM (inactive)

From ChEMBL document CHEMBL1201862, “PubChem BioAssay data set” (2004)
